Experimental data reported in US10724099B2, “Multiplex methods to assay mixed cell populations simultaneously” (The Broad Institute, Inc., priority 2012, dated 2020).

Tests used:
[1] = target: T1, MLK1 (Homo sapiens, UniProt P80192); test: DiscoveRx KinomeScan binding; conditions: Entrez MAP3K9
T1 construct: purchased DiscoveRx scanEDGE panel (KinomeScan)

[2] = target: T2, IGF1R (Homo sapiens, UniProt P08069); test: DiscoveRx KinomeScan binding
T2 construct: purchased DiscoveRx scanEDGE panel

[3] = target: T3, CSF1R (Homo sapiens, UniProt P07333); test: DiscoveRx KinomeScan binding
T3 construct: purchased DiscoveRx scanEDGE panel

[4] = target: T4, ERBB4 (Homo sapiens, UniProt Q15303); test: DiscoveRx KinomeScan binding
T4 construct: purchased DiscoveRx scanEDGE panel

[5] = target: T5, RIOK2 (Homo sapiens, UniProt Q9BVS4); test: DiscoveRx KinomeScan binding
T5 construct: purchased DiscoveRx scanEDGE panel

[6] = target: T6, BMPR2 (Homo sapiens, UniProt Q13873); test: DiscoveRx KinomeScan binding
T6 construct: purchased DiscoveRx (KINOMEscan scanEDGE panel)

[7] = target: T7, ERK1 (Homo sapiens, UniProt P27361); test: DiscoveRx KinomeScan binding; conditions: Entrez MAPK3
T7 construct: purchased DiscoveRx scanEDGE panel

[8] = target: T8, p38---alpha (Homo sapiens, UniProt Q16539); test: DiscoveRx KinomeScan binding; conditions: Entrez MAPK14
T8 construct: purchased DiscoveRx scanEDGE panel (KinomeScan)

[9] = target: T9, KIT (Homo sapiens, UniProt P10721); test: DiscoveRx KinomeScan binding
T9 construct: purchased DiscoveRx scanEDGE panel (KinomeScan)

[10] = target: T10, KIT(V559D,T670I) (Homo sapiens, UniProt P10721, T670I/V559D); test: DiscoveRx KinomeScan binding
T10 construct: purchased DiscoveRx scanEDGE panel (KinomeScan)

[11] = target: T11, FGFR2 (Homo sapiens, UniProt P21802); test: DiscoveRx KinomeScan binding
T11 construct: purchased DiscoveRx scanEDGE panel

[12] = target: T12, AKT2 (Homo sapiens, UniProt P31751); test: DiscoveRx KinomeScan binding
T12 construct: purchased DiscoveRx (KINOMEscan scanEDGE panel)

[13] = tested on: 308 kinases; test: Kinase activity profiling, Millipore KinaseProfiler; type: biochemical
[14] = target: T13, PIK3CG (Homo sapiens, UniProt P48736); test: DiscoveRx KinomeScan binding
T13 construct: purchased DiscoveRx scanEDGE panel

[15] = target: T14, PIM3 (Homo sapiens, UniProt Q86V86); test: DiscoveRx KinomeScan binding
T14 construct: purchased DiscoveRx scanEDGE panel

[16] = target: T15, TSSK1B (Homo sapiens, UniProt Q9BXA7); test: DiscoveRx KinomeScan binding
T15 construct: purchased DiscoveRx scanEDGE panel

[17] = target: T16, CSNK1G2 (Homo sapiens, UniProt P78368); test: DiscoveRx KinomeScan binding
T16 construct: purchased DiscoveRx scanEDGE panel

[18] = target: T17, PLK3 (Homo sapiens, UniProt Q9H4B4); test: DiscoveRx KinomeScan binding
T17 construct: purchased DiscoveRx scanEDGE panel

[19] = target: T18, PKAC---alpha (Homo sapiens, UniProt P17612); test: DiscoveRx KinomeScan binding; conditions: Entrez PRKACA
T18 construct: purchased DiscoveRx scanEDGE panel

[20] = target: T19, ABL1---nonphosphorylated (Homo sapiens, UniProt P00519); test: DiscoveRx KinomeScan binding; conditions: Entrez ABL1
T19 construct: purchased DiscoveRx (KINOMEscan scanEDGE panel)

[21] = target: T20, JNK1 (Homo sapiens, UniProt P45983); test: DiscoveRx KinomeScan binding; conditions: Entrez MAPK8
T20 construct: purchased DiscoveRx scanEDGE panel

[22] = target: T21, CDK7 (Homo sapiens, UniProt P50613); test: DiscoveRx KinomeScan binding
T21 construct: purchased DiscoveRx (KINOMEscan scanEDGE panel)

[23] = target: T22, ERBB2 (Homo sapiens, UniProt P04626); test: DiscoveRx KinomeScan binding
T22 construct: purchased DiscoveRx scanEDGE panel

[24] = target: T23, GSK3B (Homo sapiens, UniProt P49841); test: DiscoveRx KinomeScan binding
T23 construct: purchased DiscoveRx scanEDGE panel

[25] = target: T24, TIE2 (Homo sapiens, UniProt Q02763); test: DiscoveRx KinomeScan binding; conditions: Entrez TEK
T24 construct: purchased DiscoveRx scanEDGE panel

[26] = target: T25, JNK2 (Homo sapiens, UniProt P45984); test: DiscoveRx KinomeScan binding; conditions: Entrez MAPK9
T25 construct: purchased DiscoveRx scanEDGE panel (KinomeScan)

[27] = target: T26, PRKCE (Homo sapiens, UniProt Q02156); test: DiscoveRx KinomeScan binding
T26 construct: purchased DiscoveRx scanEDGE panel

[28] = target: T27, TGFBR1 (Homo sapiens, UniProt P36897); test: DiscoveRx KinomeScan binding
T27 construct: purchased DiscoveRx scanEDGE panel

[29] = target: T28, PAK2 (Homo sapiens, UniProt Q13177); test: DiscoveRx KinomeScan binding
T28 construct: purchased DiscoveRx scanEDGE panel (KinomeScan)

[30] = target: T29, EGFR (Homo sapiens, UniProt P00533); test: DiscoveRx KinomeScan binding
T29 construct: purchased DiscoveRx scanEDGE panel

[31] = target: T30, JNK3 (Homo sapiens, UniProt P53779); test: DiscoveRx KinomeScan binding; conditions: Entrez MAPK10
T30 construct: purchased DiscoveRx scanEDGE panel (KinomeScan)

[32] = target: T31, DCAMKL1 (Homo sapiens, UniProt O15075); test: DiscoveRx KinomeScan binding; conditions: Entrez DCLK1
T31 construct: purchased DiscoveRx scanEDGE panel

[33] = target: T32, CSNK1D (Homo sapiens, UniProt P48730); test: DiscoveRx KinomeScan binding
T32 construct: purchased DiscoveRx scanEDGE panel

[34] = target: T33, CDK3 (Homo sapiens, UniProt Q00526); test: DiscoveRx KinomeScan binding
T33 construct: purchased DiscoveRx (KINOMEscan scanEDGE panel)

[35] = target: T34, DYRK1B (Homo sapiens, UniProt Q9Y463); test: DiscoveRx KinomeScan binding
T34 construct: purchased DiscoveRx scanEDGE panel

[36] = target: T35, AXL (Homo sapiens, UniProt P30530); test: DiscoveRx KinomeScan binding
T35 construct: purchased DiscoveRx (KINOMEscan scanEDGE panel)

[37] = target: T36, PIK3C2B (Homo sapiens, UniProt O00750); test: DiscoveRx KinomeScan binding
T36 construct: purchased DiscoveRx scanEDGE panel (KinomeScan)

[38] = target: T37, KIT(D816V) (Homo sapiens, UniProt P10721, D816V); test: DiscoveRx KinomeScan binding
T37 construct: purchased DiscoveRx scanEDGE panel (KinomeScan)

[39] = target: T38, ACVR1B (Homo sapiens, UniProt P36896); test: DiscoveRx KinomeScan binding
T38 construct: purchased DiscoveRx (KINOMEscan scanEDGE panel)

T36 sequence (O00750 whole entry): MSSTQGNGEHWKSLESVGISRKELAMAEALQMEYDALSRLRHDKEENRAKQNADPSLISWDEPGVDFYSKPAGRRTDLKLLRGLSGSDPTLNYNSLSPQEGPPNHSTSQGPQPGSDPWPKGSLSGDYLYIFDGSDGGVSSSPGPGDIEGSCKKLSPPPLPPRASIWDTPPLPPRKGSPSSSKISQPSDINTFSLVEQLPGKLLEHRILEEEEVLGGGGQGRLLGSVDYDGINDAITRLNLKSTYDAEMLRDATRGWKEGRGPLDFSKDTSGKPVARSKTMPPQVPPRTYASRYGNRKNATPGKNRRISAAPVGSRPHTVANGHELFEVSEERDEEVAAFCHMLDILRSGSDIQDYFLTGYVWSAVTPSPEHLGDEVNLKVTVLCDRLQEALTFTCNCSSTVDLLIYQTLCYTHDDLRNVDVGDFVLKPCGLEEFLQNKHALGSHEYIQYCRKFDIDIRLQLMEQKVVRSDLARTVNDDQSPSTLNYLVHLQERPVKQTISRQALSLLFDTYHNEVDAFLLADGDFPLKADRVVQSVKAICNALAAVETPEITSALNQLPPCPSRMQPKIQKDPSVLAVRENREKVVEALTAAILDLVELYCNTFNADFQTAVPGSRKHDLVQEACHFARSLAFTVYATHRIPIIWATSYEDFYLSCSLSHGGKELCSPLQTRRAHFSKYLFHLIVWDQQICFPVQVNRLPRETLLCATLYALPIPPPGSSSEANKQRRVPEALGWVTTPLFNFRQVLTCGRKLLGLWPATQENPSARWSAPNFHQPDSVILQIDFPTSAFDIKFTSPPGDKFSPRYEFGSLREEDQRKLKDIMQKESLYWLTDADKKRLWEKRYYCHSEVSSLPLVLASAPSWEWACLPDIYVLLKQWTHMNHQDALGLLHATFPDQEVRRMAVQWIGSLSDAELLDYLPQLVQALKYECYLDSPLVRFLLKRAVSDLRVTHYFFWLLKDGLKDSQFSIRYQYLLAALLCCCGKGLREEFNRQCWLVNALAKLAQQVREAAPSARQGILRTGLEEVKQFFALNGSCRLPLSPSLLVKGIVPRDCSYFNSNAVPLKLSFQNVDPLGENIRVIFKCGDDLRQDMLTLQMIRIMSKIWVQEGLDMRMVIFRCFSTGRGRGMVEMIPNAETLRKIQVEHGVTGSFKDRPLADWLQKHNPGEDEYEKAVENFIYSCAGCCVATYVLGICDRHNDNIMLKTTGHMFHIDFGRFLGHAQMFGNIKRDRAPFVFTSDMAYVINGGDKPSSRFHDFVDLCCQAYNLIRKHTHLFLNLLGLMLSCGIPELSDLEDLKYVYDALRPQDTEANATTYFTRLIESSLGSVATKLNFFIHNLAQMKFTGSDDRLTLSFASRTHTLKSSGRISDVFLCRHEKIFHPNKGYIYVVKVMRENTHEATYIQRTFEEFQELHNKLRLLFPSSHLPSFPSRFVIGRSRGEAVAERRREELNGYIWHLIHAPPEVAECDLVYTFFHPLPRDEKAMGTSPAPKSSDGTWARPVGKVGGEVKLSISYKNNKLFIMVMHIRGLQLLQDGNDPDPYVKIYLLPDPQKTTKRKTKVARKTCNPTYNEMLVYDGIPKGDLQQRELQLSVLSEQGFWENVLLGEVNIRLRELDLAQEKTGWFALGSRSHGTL
T37 sequence (P10721 26-976 D816V): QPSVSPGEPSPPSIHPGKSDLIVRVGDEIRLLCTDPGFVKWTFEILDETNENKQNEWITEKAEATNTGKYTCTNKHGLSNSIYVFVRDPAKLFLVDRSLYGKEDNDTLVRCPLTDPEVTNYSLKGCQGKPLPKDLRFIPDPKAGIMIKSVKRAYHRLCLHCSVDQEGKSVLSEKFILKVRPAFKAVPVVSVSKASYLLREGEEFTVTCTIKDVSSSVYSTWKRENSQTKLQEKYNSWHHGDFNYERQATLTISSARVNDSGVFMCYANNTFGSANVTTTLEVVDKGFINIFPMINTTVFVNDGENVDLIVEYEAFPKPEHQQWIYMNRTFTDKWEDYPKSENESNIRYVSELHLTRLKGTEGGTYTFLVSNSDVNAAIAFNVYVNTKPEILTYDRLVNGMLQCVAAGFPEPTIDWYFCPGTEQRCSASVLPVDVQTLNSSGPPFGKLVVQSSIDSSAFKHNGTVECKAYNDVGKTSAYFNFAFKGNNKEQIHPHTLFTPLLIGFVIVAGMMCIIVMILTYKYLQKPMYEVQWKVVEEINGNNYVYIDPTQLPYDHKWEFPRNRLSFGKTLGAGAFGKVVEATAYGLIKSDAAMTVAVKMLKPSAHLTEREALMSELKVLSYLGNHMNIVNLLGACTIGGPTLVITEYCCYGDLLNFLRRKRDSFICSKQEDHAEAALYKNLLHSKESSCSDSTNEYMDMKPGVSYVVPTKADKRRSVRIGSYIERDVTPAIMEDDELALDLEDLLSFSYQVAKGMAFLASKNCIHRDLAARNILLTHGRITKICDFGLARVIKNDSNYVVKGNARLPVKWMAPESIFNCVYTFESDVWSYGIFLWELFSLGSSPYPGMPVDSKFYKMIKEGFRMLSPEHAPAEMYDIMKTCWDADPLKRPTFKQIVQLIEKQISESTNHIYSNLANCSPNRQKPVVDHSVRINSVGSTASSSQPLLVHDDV
T29 sequence (P00533 25-1210): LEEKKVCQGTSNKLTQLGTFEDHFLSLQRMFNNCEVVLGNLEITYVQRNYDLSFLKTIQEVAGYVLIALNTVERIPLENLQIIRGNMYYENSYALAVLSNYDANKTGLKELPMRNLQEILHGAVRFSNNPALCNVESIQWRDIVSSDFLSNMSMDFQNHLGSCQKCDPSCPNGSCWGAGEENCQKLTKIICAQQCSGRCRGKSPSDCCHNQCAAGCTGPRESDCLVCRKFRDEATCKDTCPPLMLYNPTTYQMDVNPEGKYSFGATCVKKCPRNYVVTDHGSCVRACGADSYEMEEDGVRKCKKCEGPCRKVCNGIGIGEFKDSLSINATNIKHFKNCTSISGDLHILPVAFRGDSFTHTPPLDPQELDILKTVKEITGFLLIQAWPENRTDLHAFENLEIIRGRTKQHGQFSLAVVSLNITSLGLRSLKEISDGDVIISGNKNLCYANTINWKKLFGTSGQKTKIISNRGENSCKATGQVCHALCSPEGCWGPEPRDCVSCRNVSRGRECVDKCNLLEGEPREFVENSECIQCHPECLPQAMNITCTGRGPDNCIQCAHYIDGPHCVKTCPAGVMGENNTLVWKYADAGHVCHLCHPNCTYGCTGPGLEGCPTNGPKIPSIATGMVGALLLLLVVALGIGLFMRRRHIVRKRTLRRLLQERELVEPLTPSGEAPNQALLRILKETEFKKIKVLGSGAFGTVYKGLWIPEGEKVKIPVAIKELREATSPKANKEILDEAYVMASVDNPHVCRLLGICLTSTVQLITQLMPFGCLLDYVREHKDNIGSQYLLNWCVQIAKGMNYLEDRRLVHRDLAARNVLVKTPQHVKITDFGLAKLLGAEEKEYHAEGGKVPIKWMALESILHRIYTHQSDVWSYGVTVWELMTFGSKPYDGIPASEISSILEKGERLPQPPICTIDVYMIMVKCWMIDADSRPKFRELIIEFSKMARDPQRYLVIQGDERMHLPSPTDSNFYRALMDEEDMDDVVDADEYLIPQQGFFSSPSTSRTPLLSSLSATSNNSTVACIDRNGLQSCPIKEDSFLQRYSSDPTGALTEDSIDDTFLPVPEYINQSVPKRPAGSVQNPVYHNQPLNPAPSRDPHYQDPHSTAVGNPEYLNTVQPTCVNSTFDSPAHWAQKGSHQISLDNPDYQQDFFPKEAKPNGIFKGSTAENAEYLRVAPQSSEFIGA
T16 sequence (P78368 whole entry): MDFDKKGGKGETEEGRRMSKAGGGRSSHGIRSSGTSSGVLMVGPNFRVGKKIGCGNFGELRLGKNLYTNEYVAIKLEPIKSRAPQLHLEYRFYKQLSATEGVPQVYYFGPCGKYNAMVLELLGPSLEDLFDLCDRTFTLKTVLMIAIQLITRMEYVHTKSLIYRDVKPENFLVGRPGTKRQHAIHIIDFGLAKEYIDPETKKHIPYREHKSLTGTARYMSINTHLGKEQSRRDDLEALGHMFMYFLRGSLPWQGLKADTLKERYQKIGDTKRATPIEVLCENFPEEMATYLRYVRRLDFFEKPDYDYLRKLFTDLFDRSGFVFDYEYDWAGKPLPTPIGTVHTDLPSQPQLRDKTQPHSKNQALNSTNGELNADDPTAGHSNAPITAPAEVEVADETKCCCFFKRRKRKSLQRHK
T15 sequence (Q9BXA7 whole entry): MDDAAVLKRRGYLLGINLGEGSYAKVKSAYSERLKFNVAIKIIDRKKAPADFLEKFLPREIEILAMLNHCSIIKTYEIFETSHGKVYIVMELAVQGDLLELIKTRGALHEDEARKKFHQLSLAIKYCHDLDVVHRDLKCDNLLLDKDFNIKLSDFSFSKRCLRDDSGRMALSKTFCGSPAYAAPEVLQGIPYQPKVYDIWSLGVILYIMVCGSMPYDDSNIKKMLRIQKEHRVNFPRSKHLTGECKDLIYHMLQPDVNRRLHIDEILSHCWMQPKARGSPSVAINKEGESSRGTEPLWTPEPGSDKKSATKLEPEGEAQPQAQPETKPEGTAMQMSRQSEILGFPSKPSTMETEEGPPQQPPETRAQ
T12 sequence (P31751 whole entry): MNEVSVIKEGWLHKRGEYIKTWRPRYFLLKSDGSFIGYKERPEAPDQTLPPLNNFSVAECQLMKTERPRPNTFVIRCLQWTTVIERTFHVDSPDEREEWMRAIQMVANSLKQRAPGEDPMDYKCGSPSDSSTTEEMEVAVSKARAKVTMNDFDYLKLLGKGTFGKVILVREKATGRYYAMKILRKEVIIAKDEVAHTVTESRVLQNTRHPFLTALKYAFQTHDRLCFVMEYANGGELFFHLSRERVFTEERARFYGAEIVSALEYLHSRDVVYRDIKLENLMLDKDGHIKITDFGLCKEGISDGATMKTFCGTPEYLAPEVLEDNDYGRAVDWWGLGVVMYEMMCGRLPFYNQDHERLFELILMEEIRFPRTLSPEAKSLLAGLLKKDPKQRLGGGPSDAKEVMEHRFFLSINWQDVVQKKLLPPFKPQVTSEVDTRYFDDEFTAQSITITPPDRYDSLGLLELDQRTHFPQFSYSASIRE
T10 sequence (P10721 26-976 V559D/T670I): as the sequence (P10721 26-976 D816V) above, with V534D, T645I, V791D counted along it

COc1ccc(NC(=O)Nc2ccc3c(c2)C(=O)N([C@@H](C)CO)C[C@H](C)[C@H](CN(C)Cc2ccc4c(c2)OCO4)O3)cc1 [BRD-7880]
Percent Control [1]: 91% | Percent Control [2]: 88% | Percent Control [3]: 100% | Percent Control [4]: 97% | Percent Control [5]: 38% | Percent Control [6]: 100% | Percent Control [7]: 92% | Percent Control [8]: 93% | Percent Control [9]: 77% | Percent Control [10]: 100% | Percent Control [11]: 77% | Percent Control [12]: 80% | significant inhibition (defined as activity<25% control) across 308 kinases [13]: inhibited aurora kinase B | Percent Control [14]: 100% | Percent Control [15]: 72% | Percent Control [16]: 57% | Percent Control [17]: 100% | Percent Control [18]: 48% | Percent Control [19]: 69% | Percent Control [20]: 100% | Percent Control [21]: 91% | Percent Control [22]: 77% | Percent Control [23]: 100% | Percent Control [24]: 94% | Percent Control [25]: 97% | Percent Control [26]: 89% | Percent Control [27]: 100% | Percent Control [28]: 100% | Percent Control [29]: 69% | Percent Control [30]: 66% | Percent Control [31]: 70% | Percent Control [32]: 37% | Percent Control [33]: 100% | Percent Control [34]: 76% | Percent Control [35]: 55% | Percent Control [36]: 84% | Percent Control [37]: 96% | Percent Control [38]: 72% | Percent Control [39]: 84%
